Source: PMC8953660, “Selective measurement of NAPE-PLD activity via a PLA1/2-resistant fluorogenic N-acyl-phosphatidylethanolamine analog” (Journal of Lipid Research, 2021)
Read-outs that look alike come from different tables or passages of the source.

Biological target: T1, recombinant mouse Nape-pld (NAPE-PLD) (Mus musculus, UniProt Q8BH82)
T1 construct: gene Napepld
Settings: 50 mM Tris-HCl pH 8.0, N-octyl-β-D-glucoside, 37 °C, allosteric sigmoidal fit

T1 sequence (Q8BH82 whole entry): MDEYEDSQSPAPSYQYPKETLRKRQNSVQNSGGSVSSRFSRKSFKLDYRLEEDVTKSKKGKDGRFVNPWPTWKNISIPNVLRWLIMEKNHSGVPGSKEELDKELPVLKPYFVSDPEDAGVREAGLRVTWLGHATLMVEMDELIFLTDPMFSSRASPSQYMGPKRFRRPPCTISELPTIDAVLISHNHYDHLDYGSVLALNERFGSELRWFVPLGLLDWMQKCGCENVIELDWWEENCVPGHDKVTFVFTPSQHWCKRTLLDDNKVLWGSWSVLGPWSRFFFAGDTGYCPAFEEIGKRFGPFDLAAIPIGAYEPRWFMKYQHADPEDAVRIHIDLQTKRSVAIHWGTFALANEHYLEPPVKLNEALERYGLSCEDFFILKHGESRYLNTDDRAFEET

Row | Compound | Km (authors note evidence of an inadequate regression model for flame-NAPE) [µM] | Km [µM]
1 | CCCCCCO[C@@H](COP(=O)(O)OCCNC(=O)CCCCCNc1ccc([N+](=O)[O-])cc1[N+](=O)[O-])CN(C)C(=O)CCCCc1ccc2n1[B-](F)(F)[N+]1=C(C)C=C(C)C1=C2 [flame-NAPE] | 9.2 | –
2 | CCCCCCO[C@H](COC(=O)CCCCC1=[N+]2C(=Cc3c(C)cc(C)n3[B-]2(F)F)C=C1)COP(=O)(O)OCCNC(=O)CCCCCNc1ccc([N+](=O)[O-])cc1[N+](=O)[O-] [PED-A1] | – | 4
